Tests used:
[1] = tested on: transformed tobacco seedlings; experiment: Tissue culture growth of transformed tobacco seed on 50 nM 10015 (Examples 22-23); type: in vivo, Nicotiana tabacum
Description: Growth medium was prepared from Murishige minimal organics medium (Gibco Laboratories, Grand Island, N.Y.), 8 g/l agar, supplemented with T vitamins (50 ppb biotin, 0.5 ppm pyridoxine HCl, 0.5 ppm thiamine HCl, 5 ppm nicotinic acid, 0.5 ppm folic acid, 2 ppm glycine, 100 ppm myo-inositol), sterilized and placed into sterile PlantCon plant tissue culture containers (Flow Laboratories, McLean, Va.). Tobacco seed obtained from the self-pollination of the primary transformants was surface sterilized by a treatment of not more than 30 min in 20% chlorine bleach, 0.1% sodium dodecyl sulfate, followed by rinsing in distilled water, and placed on the surface of the medium in the sterile containers. Following this treatment, the seed was allowed to germinate and grow under illumination (100 microeinsteins·m^-2 ·s^-1), at 22° C.
Because of the increased phytotoxicity of 10014 over that of 10015, plants grown in media containing 10015 should be growth inhibited if they contain an active cytochrome P450SU1. To test this, seeds of tobacco were grown in tissue culture media supplemented with 50 nM compound 10015, and the results are shown in Table 20.
This technique was used to analyze the progeny of plants transformed with both the gene for SU1 and FeS-B, and the results are shown in Table 21.
Plants transformed With the plasmids pSuFe31 and pSuFe41 were selected for high expression of P450SU1 and FeS-B mRNA by primer extension analysis as described in Example 19, and self pollinated to produce seed. This seed was germinated on medium containing 50 nM of compound 10015 and analyzed for sensitivity to this compound (indicating the presence of an active cytochrome P450SU1 enzyme) as in Example 22.

[2] = tested on: transgenic Nicotiana tabacum cv. Xanthi plants; experiment: In vitro pollen germination after spraying 10015 on tobacco with anther-specific P450SU1 (Example 28); type: in vivo
Description: Application of compound 10015 was as follows. The tapetal cells of the anther surround the developing pollen and are instrumental in supporting the development of mature pollen. Thus production of a toxin in the tapetal cells was expected to disrupt the development of normal mature pollen. The nontoxic compound 10015 was sprayed onto flowering transgenic plants that had anther-specific expression of P450SU1 mRNA. […] The 10015 was first dissolved in up to 0.8 ml of 0.01 N ammonium hydroxide and then diluted into AGWT (90.2% Acetone:4.8% Glycerol:4.8% Water:0.24% Tween 20 by volume). Little effect was seen when rates of less than 32 g/ha were applied. At 32 g/ha and above, effects were seen on the ability of pollen to germinate in vitro. Newly opened buds were collected at time intervals between four and 23 days after spraying. The anthers were removed and pollen was brushed into Brewbaker and Kwak medium (15% sucrose, 200 ppm calcium nitrate, 100 ppm boric acid). Growth of tubes from the pollen, indicating germination, was assessed after four hours of incubation by microscopic observation.

[3] = tested on: S. griseolus ATCC 11796; experiment: Western blot for cytochrome P450SU1 after induction with 10001 (Example 3); type: cell-based, Streptomyces griseolus; details: 36 mg of 10001 added six hours before harvesting; not found without 10001
Description: Western blot analysis of proteins is performed by separating the proteins by SDS polyacrylamide gel electrophoresis (Laemmli, Nature 227: 680, 1970, herein incorporated by reference) and then transferring the proteins to nitrocellulose and detecting the protein of interest with antibody specific for the protein as described by Towbin et al., Proc. Natl. Acad. Sci. U.S.A. 76: 4350-4354 (1979) and Bio-Rad bulletin 885 85-0335. (Bio-Rad Laboratories, Richmond, CA 94804), each herein incorporated by reference. Antiserum to cytochrome P450SU1 was that described by O'Keefe et al., Recent Advances in Phytochemistry 21: 151-173 (1987), herein incorporated by reference.
S. lividans containing pCAO200, containing pCAO200SU1-FeS-B#9 and S. lividans containing […] were grown separately in 400 ml of YEME broth with-shaking at 30° C. for approximately 36 hours. S. griseolus ATCC 11796 was grown in 400 ml of sporulation broth for approximately 30 hours. Six hours before harvesting the cells from the cultures, 200 ml of YEME was added to the S. lividans cells. Six hours before harvesting, the S. griseolus culture was split into two 200 ml aliquots and 100 ml of fresh sporulation broth was added to each. […] Cytochrome P450SU1 was detected in the cultures of S. lividans transformed with either pCAO200SU1-FeS-B#9 or pCAO200SU1#12 and in the S. griseolus ATCC 11796 culture induced with 10001.

Q: Which results are given for `COc1cc(OC)nc(NC(=O)NS(=O)(=O)c2cccc3c2S(=O)(=O)N(C(C)C)C3)n1` [compound 10015]?
A: Compound 10015 Sensitive (plants demonstrating result/total plants) ([1]; AGS502 (Control)): 0/9; Number 10015 Resistant ([1]; AGS502 (Control)): 32; Number 10015 Sensitive ([1]; AGS502 (Control)): 0; Ratio Sensitive/Resistant ([1]; AGS502 (Control)): 0; Compound 10015 Sensitive (plants demonstrating result/total plants) ([1]; SuFe21.2): 7/9; Compound 10015 Sensitive (plants demonstrating result/total plants) ([1]; SuFe21.5): 8/9; Compound 10015 Sensitive (plants demonstrating result/total plants) ([1]; SuFe21.6): 7/9; Compound 10015 Sensitive (plants demonstrating result/total plants) ([1]; SuFe21.7): 5/7; Compound 10015 Sensitive (plants demonstrating result/total plants) ([1]; SuFe21.8): 10/10; Number 10015 Resistant ([1]; SuFe31.13): 4; Number 10015 Sensitive ([1]; SuFe31.13): 12; Ratio Sensitive/Resistant ([1]; SuFe31.13): 3.0; Number 10015 Resistant ([1]; SuFe31.28): 5; Number 10015 Sensitive ([1]; SuFe31.28): 10; Ratio Sensitive/Resistant ([1]; SuFe31.28): 2.0; Number 10015 Resistant ([1]; SuFe41.34): 32; Number 10015 Sensitive ([1]; SuFe41.34): 0; Ratio Sensitive/Resistant ([1]; SuFe41.34): 0; Number 10015 Resistant ([1]; SuFe41.37): 8; Number 10015 Sensitive ([1]; SuFe41.37): 24; Ratio Sensitive/Resistant ([1]; SuFe41.37): 3.0; Number 10015 Resistant ([1]; SuFe41.56): 32; Number 10015 Sensitive ([1]; SuFe41.56): 0; Ratio Sensitive/Resistant ([1]; SuFe41.56): 0; Number 10015 Resistant ([1]; SuFe41.60): 15; Number 10015 Sensitive ([1]; SuFe41.60): 0; Ratio Sensitive/Resistant ([1]; SuFe41.60): 0; Compound 10015 Sensitive (plants demonstrating result/total plants) ([1]; SuFell.1): 2/9; Compound 10015 Sensitive (plants demonstrating result/total plants) ([1]; SuFell.11): 0/9; Compound 10015 Sensitive (plants demonstrating result/total plants) ([1]; SuFell.3): 0/8; Compound 10015 Sensitive (plants demonstrating result/total plants) ([1]; SuFell.4): 0/10; Compound 10015 Sensitive (plants demonstrating result/total plants) ([1]; SuFell.7): 0/9; Compound 10015 Sensitive (plants demonstrating result/total plants) ([1]; SuFell.8): 1/10; pollen germination in vitro ([2]; A-T-SU1 plants 41A and 56 A, 32 g/ha, 7 to 11 days after application): 0%; pollen germination in vitro ([2]; A-T-SU1 plants 41A and 56 A, 32 g/ha, through 18 days on one plant, 13 days on the other): less than 0.1%; pollen germination in vitro ([2]; plant 28A, 100 g/ha, 21 days): less than 0.1%; pollen germination in vitro ([2]; plant 38A, 100 g/ha, 14 days, varying between buds): 1-25%

Q: For `CCOC(=O)c1ccccc1S(=O)(=O)NC(=O)Nc1nc(Cl)cc(OC)n1` [compound 10001, N-[(4-chloro-6-methoxy-pyrimidin-2-yl)aminocarbonyl]-2-ethoxycarbonylbenzenesulfonamide], which “Cytochrome P450SU1 in culture (Western blot)” value [3] is on record?
A: Its value is “detected”.

Reference: patent US5349127A, “Expression of herbicide metabolizing cytochromes P450” (priority 1992, dated 1994)
